From patent US20090215893A1, “Parakeratosis inhibitor, pore-shrinking agent,or rough skin preventing/ameliorating agent, and external composition for skin” (Shiseido Company Ltd, priority 2005, published 2009) come the findings set out here.

Series [1] concerns pores of the cheeks of healthy human males. The experiment in a line: Human pore-shrinking effect (replica assessment of cheek pores). The series is classed as in vivo. Conditions: for Replica assessment (average of n = 5): sample 3 mass %, twice a day for one month, pore size rating 1-13, after application minus before application, control 0.3; for pore-shrinking effect: summary of Table 2, concentrations as in Table 2.

Series [2] concerns back of hairless mice (HR-1), 10 mass % oleic acid applied. The experiment in a line: Inhibiting effect against rough skin induced by oleic acid application (transepidermal water loss). Set-up: ΔTEWL value: unit not given here. The series is classed as in vivo. Conditions: for ΔTEWL value: sample 3 mass %, three days, average of four animals, rough skin worse as value increases, control 12.0; for ΔTEWL value compared with the control aqueous solution / rough skin preventing/ameliorating effect: summary of Table 3, concentrations as in Table 3. An outline of the steps:
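HR-1 hairless mice (four per group) received 100 μL 10 mass % oleic acid in ethanol on the back, then 100 μL sample solution, daily for three days. TEWL measured next day with a TEWA Meter; ΔTEWL versus before application, averaged over four animals, compared with aqueous control.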

In series [3] the test system is cheek of a panel of 20 women. The experiment in a line: Sensory irritation tests. Format: in vivo, human. As to conditions: for Evaluation (sensory irritation, class of average rating): sample 3 mass %, 1 mL on cheek, evaluated for ten minutes, 20 women; for sensory irritation: summary of Table 4, β-alanine at 3%. An outline of the steps:
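A cotton swab applied 1 mL of control or sample aqueous solution to opposite cheeks of 20 women. Irritation was scored 0–3 every 30 s for 10 min. Average ratings were graded A (<0.2), B (0.2–<1.0), C (1.0–<2.0) or D (≥2.0).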

The subject of series [4] is back of a hairless mouse (HR-1), 10 mass % oleic acid applied. The experiment in a line: Parakeratosis-inhibiting effect tests: oleic acid applied to hairless mouse back, macroscopic rough skin evaluation and parakeratosis value. Format: in vivo. Conditions: for Macroscopic evaluation (average of four animals) / Parakeratosis value (average of four animals): sample 3 mass %; for Macroscopic evaluation (average of four animals): 100 μL after oleic acid, three days, rough skin score 0.0 (no redness) to 2.0 (control); for Parakeratosis value (average of four animals): tape-stripped stratum corneum, hematoxylin, range 1.0 to 3.0, higher = parakeratosis advanced, control 2.0; for parakeratosis value / parakeratosis-inhibiting effect / rough skin preventing effect, based on stratum corneum peeling and redness: summary of Table 1, concentrations as in Table 1. An outline of the steps: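 Hairless mouse backs given 100 μL of 10 mass % oleic acid in ethanol, then 100 μL of sample (mainly 3 mass % in 30% ethanol, pH 7.0 to 7.5), daily for three days. Rough skin scored 0.0 to 2.0 in 0.25 steps against control. Tape-stripped, hematoxylin-stained stratum corneum rated 1.0 to 3.0 for parakeratosis.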

On to `CCN[C@@H](CO)C(=O)O` [N-ethyl-L-serine], for which, in series [1], the “Replica assessment (average of n = 5)” value is −1.2 and the “pore-shrinking effect” value is “seen”. In series [2], the ΔTEWL value was found to be 7.7 and the “ΔTEWL value compared with the control aqueous solution / rough skin preventing/ameliorating effect” value is on record as “significantly lower”. Moreover, in series [3], the “Evaluation (sensory irritation, class of average rating)” value was “A (average rating of less than 0.2)” and the “sensory irritation” value is listed as “no problems”. For the same compound, in series [4], the “Macroscopic evaluation (average of four animals)” value (shortened to “Macroscopic evaluation”) stood at 1.4; the “Parakeratosis value (average of four animals)” value amounted to 1.4; the “parakeratosis value / parakeratosis-inhibiting effect” value is given as “reduced”; the “rough skin preventing effect, based on stratum corneum peeling and redness” value (from here on “rough skin preventing effect, based”) is reported as “seen”.
Take `CN[C@H](C)C(=O)O` [N-methyl-D-alanine]: in series [1], the “Replica assessment (average of n = 5)” value was −0.7 and the “pore-shrinking effect” value was “seen”. For the same compound, in series [2], the ΔTEWL value turned out to be 8.2 and the “ΔTEWL value compared with the control aqueous solution / rough skin preventing/ameliorating effect” value is “significantly lower”. In series [3], the “Evaluation (sensory irritation, class of average rating)” value is “A (average rating of less than 0.2)” and the “sensory irritation” value was “no problems”. Further, in series [4], the “Macroscopic evaluation” value was 1.2; the “Parakeratosis value (average of four animals)” value was found to be 1.3; the “parakeratosis value / parakeratosis-inhibiting effect” value is recorded as “reduced”; the “rough skin preventing effect, based” value is on record as “seen”.
For the compound `CN[C@H](CO)C(=O)O` [N-methyl-D-serine], in series [1], the “Replica assessment (average of n = 5)” value is −1.5 and the “pore-shrinking effect” value is reported as “seen”. In addition, in series [2], the ΔTEWL value is 8.0 and the “ΔTEWL value compared with the control aqueous solution / rough skin preventing/ameliorating effect” value is “significantly lower”. In series [3], the “Evaluation (sensory irritation, class of average rating)” value is “A (average rating of less than 0.2)” and the “sensory irritation” value is given as “no problems”. Also, in series [4], the “Macroscopic evaluation” value came out at 1.4; the “Parakeratosis value (average of four animals)” value came out at 1.5; the “parakeratosis value / parakeratosis-inhibiting effect” value is on record as “reduced”; the “rough skin preventing effect, based” value is on record as “seen”.
Turning to `CN[C@@H](C)C(=O)O` [N-methyl-L-alanine], in series [1], the “Replica assessment (average of n = 5)” value is −0.8 and the “pore-shrinking effect” value is recorded as “seen”. In series [2], the ΔTEWL value came out at 8.3 and the “ΔTEWL value compared with the control aqueous solution / rough skin preventing/ameliorating effect” value is “significantly lower”. Moreover, in series [3], the “Evaluation (sensory irritation, class of average rating)” value was “A (average rating of less than 0.2)” and the “sensory irritation” value is on record as “no problems”. For the same compound, in series [4], the “Macroscopic evaluation” value was 1.4; the “Parakeratosis value (average of four animals)” value is listed as 1.4; the “parakeratosis value / parakeratosis-inhibiting effect” value is listed as “reduced”; the “rough skin preventing effect, based” value was “seen”.
Turning to `CN[C@@H](CO)C(=O)O` [N-methyl-L-serine], in series [1], the “Replica assessment (average of n = 5)” value is listed as −1.2 and the “pore-shrinking effect” value is “seen”. In addition, in series [2], the ΔTEWL value worked out at 7.9 and the “ΔTEWL value compared with the control aqueous solution / rough skin preventing/ameliorating effect” value is “significantly lower”. Besides, in series [3], the “Evaluation (sensory irritation, class of average rating)” value was “A (average rating of less than 0.2)” and the “sensory irritation” value is reported as “no problems”. For the same compound, in series [4], the “Macroscopic evaluation” value was determined as 1.3; the “Parakeratosis value (average of four animals)” value was determined as 1.2; the “parakeratosis value / parakeratosis-inhibiting effect” value is listed as “reduced”; the “rough skin preventing effect, based” value is “seen”.
